In ChEMBL document CHEMBL1201862, “PubChem BioAssay data set” (2004):
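Grown in 96-well plates, cells were treated for 48 hours with each compound at five concentrations. Insufficient inhibition: endpoint recorded as highest concentration tested. GI50 is the concentration that inhibits growth by half.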 The source made the active and inactive calls. Rule as the data show it: active = GI50 up to about 1.1 µM and inactive = higher.

Experiments:
Test in all cases: growth of human tumour cells (NCI), 48 h
[1] = tested on: A549
[2] = tested on: ACHN
[3] = tested on: EKVX
[4] = tested on: HCT-116
[5] = tested on: HOP-62
[6] = tested on: Hs-578T
[7] = tested on: K562
[8] = tested on: MDA-MB-231
[9] = tested on: MDA-MB-435
[10] = tested on: MDA-N
[11] = tested on: MOLT-4
[12] = tested on: NCI/ADR-RES
[13] = tested on: OVCAR-4
[14] = tested on: OVCAR-8
[15] = tested on: RPMI-8226
[16] = tested on: SNB-19
[17] = tested on: SR
[18] = tested on: TK-10
[19] = tested on: UACC-257
[20] = tested on: UACC-62

| Compound | GI50 [1] | GI50 [2] | GI50 [3] | GI50 [4] | GI50 [5] | GI50 [6] | GI50 [7] | GI50 [8] | GI50 [9] | GI50 [10] | GI50 [11] | GI50 [12] | GI50 [13] | GI50 [14] | GI50 [15] | GI50 [16] | GI50 [17] | GI50 [18] | GI50 [19] | GI50 [20] |
| --- | --- | --- | --- | --- | --- | --- | --- | --- | --- | --- | --- | --- | --- | --- | --- | --- | --- | --- | --- | --- |
| C[N+]1=C2[B-](C(C)(C)C)=[N+](C(C)(C)C)[B-]2(C(C)(C)C)[N+](C)=C2[B-](C(C)(C)C)=[N+](C(C)(C)C)[B-]21C(C)(C)C (stereo not given) | > 100 µM (inactive) | > 100 µM (inactive) | > 100 µM (inactive) | > 100 µM (inactive) | > 100 µM (inactive) | > 100 µM (inactive) | > 100 µM (inactive) | > 100 µM (inactive) | > 100 µM (inactive) | > 100 µM (inactive) | > 100 µM (inactive) | > 100 µM (inactive) | > 100 µM (inactive) | > 100 µM (inactive) | > 100 µM (inactive) | > 100 µM (inactive) | > 100 µM (inactive) | > 100 µM (inactive) | > 100 µM (inactive) | > 100 µM (inactive) |
| CSc1ccc(/C=C2\N=C(c3ccccc3)N(c3nc4cc(C)c(C)cc4s3)C2=O)cc1 | 30.1 µM (inactive) | 24.9 µM (inactive) | 24.9 µM (inactive) | 18.3 µM (inactive) | 23.6 µM (inactive) | 28.4 µM (inactive) | 43.4 µM (inactive) | 24.6 µM (inactive) | 12.9 µM (inactive) | 13.6 µM (inactive) | 61.9 µM (inactive) | 31.3 µM (inactive) | 26.5 µM (inactive) | 20.3 µM (inactive) | 52.1 µM (inactive) | 30.2 µM (inactive) | 25 µM (inactive) | 94.4 µM (inactive) | 43.3 µM (inactive) | 28.1 µM (inactive) |
| CC(=O)C1(O)CCC2(O)C3(O)CC=C4CC(O)CCC4(C)C3CC(OC(=O)c3ccc(O)cc3)C12C (stereo not given) | > 100 µM (inactive) | > 100 µM (inactive) | > 100 µM (inactive) | > 100 µM (inactive) | > 100 µM (inactive) | > 100 µM (inactive) | 27 µM (inactive) | > 100 µM (inactive) | > 100 µM (inactive) | > 100 µM (inactive) | 46.2 µM (inactive) | > 100 µM (inactive) | > 100 µM (inactive) | > 100 µM (inactive) | > 100 µM (inactive) | > 100 µM (inactive) | > 100 µM (inactive) | > 100 µM (inactive) | > 100 µM (inactive) | 75.2 µM (inactive) |
| CCCCCCCCCCCC(=O)OC[C@@H](C[As](=O)(O)O)OC(=O)CCCCCCCCCCC | 14.2 µM (inactive) | 3.01 µM (inactive) | 13.7 µM (inactive) | 8.45 µM (inactive) | 9.95 µM (inactive) | 3.93 µM (inactive) | 5.75 µM (inactive) | 3.52 µM (inactive) | 3.85 µM (inactive) | 4.29 µM (inactive) | 5.51 µM (inactive) | 17.3 µM (inactive) | 14.2 µM (inactive) | 9.98 µM (inactive) | 6.87 µM (inactive) | 3.07 µM (inactive) | 7.36 µM (inactive) | 11.6 µM (inactive) | 16.4 µM (inactive) | 2.52 µM (inactive) |
| Cc1nn(C(=O)c2ccc(Cl)cc2)c2c1C(c1ccccc1[N+](=O)[O-])SC(=N)N2 (stereo not given) | > 10 µM (inactive) | > 10 µM (inactive) | > 10 µM (inactive) | > 10 µM (inactive) | > 10 µM (inactive) | > 10 µM (inactive) | > 10 µM (inactive) | > 10 µM (inactive) | > 10 µM (inactive) | > 10 µM (inactive) | > 10 µM (inactive) | > 10 µM (inactive) | > 10 µM (inactive) | > 10 µM (inactive) | > 10 µM (inactive) | > 10 µM (inactive) | > 10 µM (inactive) | > 10 µM (inactive) | > 10 µM (inactive) | > 10 µM (inactive) |
| CCOC(=O)/C=C1\C[C@H](NC(=O)OCc2ccccc2)C(=O)N1CC(=O)OCC | > 100 µM (inactive) | > 100 µM (inactive) | > 100 µM (inactive) | > 100 µM (inactive) | > 100 µM (inactive) | > 100 µM (inactive) | > 100 µM (inactive) | > 100 µM (inactive) | > 100 µM (inactive) | > 100 µM (inactive) | > 100 µM (inactive) | > 100 µM (inactive) | > 100 µM (inactive) | > 100 µM (inactive) | > 100 µM (inactive) | > 100 µM (inactive) | > 100 µM (inactive) | > 100 µM (inactive) | > 100 µM (inactive) | > 100 µM (inactive) |
| C=C1C(=O)OC2CC3(CO3)C3C(O)C(O)CC3(C)CC12 (stereo not given) | 40.9 µM (inactive) | 19.7 µM (inactive) | 18.3 µM (inactive) | 18.2 µM (inactive) | 61.9 µM (inactive) | 81.3 µM (inactive) | 27.5 µM (inactive) | 28.6 µM (inactive) | 25.4 µM (inactive) | 23.4 µM (inactive) | 17.8 µM (inactive) | 38.8 µM (inactive) | 76.6 µM (inactive) | 22.3 µM (inactive) | 30.9 µM (inactive) | > 100 µM (inactive) | 20.8 µM (inactive) | 35.6 µM (inactive) | 39.2 µM (inactive) | 16.6 µM (inactive) |
| O=[N+]([O-])/C(Cl)=C(\NCCO)C(Cl)=C(Cl)Cl | > 100 µM (inactive) | 89.5 µM (inactive) | > 100 µM (inactive) | 45.2 µM (inactive) | > 100 µM (inactive) | > 65.5 µM (inactive) | 8.2 µM (inactive) | > 64.9 µM (inactive) | 55.8 µM (inactive) | 55.5 µM (inactive) | 20.7 µM (inactive) | 61.1 µM (inactive) | 59.4 µM (inactive) | 52.8 µM (inactive) | 16.1 µM (inactive) | > 100 µM (inactive) | 20.5 µM (inactive) | > 89.3 µM (inactive) | > 100 µM (inactive) | 45.2 µM (inactive) |
| C=C(C)[C@@H]1CC[C@]2(C)CC[C@]3(C)[C@H](CC[C@@H]4[C@@]5(C)CC[C@H](OC(=O)c6ccccc6)C(C)(C)[C@@H]5CC[C@]43C)[C@@H]12 | > 100 µM (inactive) | > 100 µM (inactive) | > 100 µM (inactive) | > 100 µM (inactive) | > 100 µM (inactive) | > 100 µM (inactive) | > 100 µM (inactive) | > 100 µM (inactive) | > 100 µM (inactive) | > 100 µM (inactive) | > 100 µM (inactive) | > 100 µM (inactive) | > 100 µM (inactive) | > 100 µM (inactive) | > 100 µM (inactive) | > 100 µM (inactive) | 48.2 µM (inactive) | > 100 µM (inactive) | > 100 µM (inactive) | > 100 µM (inactive) |
| O=c1c2cc3c(cc2[nH]c2ncccc12)OCO3 | > 10 µM (inactive) | > 10 µM (inactive) | > 10 µM (inactive) | > 10 µM (inactive) | > 10 µM (inactive) | > 10 µM (inactive) | > 10 µM (inactive) | > 10 µM (inactive) | > 10 µM (inactive) | > 10 µM (inactive) | > 10 µM (inactive) | > 10 µM (inactive) | > 10 µM (inactive) | > 10 µM (inactive) | > 10 µM (inactive) | > 10 µM (inactive) | > 10 µM (inactive) | > 10 µM (inactive) | > 10 µM (inactive) | > 10 µM (inactive) |
| C=CC(=C)CCC(Br)C(C)(C)Br (stereo not given) | > 100 µM (inactive) | > 100 µM (inactive) | > 100 µM (inactive) | 54.3 µM (inactive) | > 100 µM (inactive) | > 100 µM (inactive) | 40.3 µM (inactive) | 4.51 µM (inactive) | > 100 µM (inactive) | > 100 µM (inactive) | 15.6 µM (inactive) | > 100 µM (inactive) | > 100 µM (inactive) | > 100 µM (inactive) | 88.1 µM (inactive) | > 100 µM (inactive) | > 100 µM (inactive) | > 100 µM (inactive) | > 100 µM (inactive) | > 100 µM (inactive) |
| Cc1cccc(NC(=S)N/N=C(/c2ccccc2)c2ccccn2)c1 | 0.22 µM (active) | 0.044 µM (active) | 0.0885 µM (active) | < 0.0131 µM (active) | 1.29 µM (inactive) | 9.02 µM (inactive) | < 0.0135 µM (active) | 0.0378 µM (active) | 0.574 µM (active) | 0.46 µM (active) | < 0.0149 µM (active) | 0.138 µM (active) | 0.368 µM (active) | 0.038 µM (active) | < 0.0182 µM (active) | 3.6 µM (inactive) | < 0.0144 µM (active) | 0.117 µM (active) | < 0.0162 µM (active) | 0.267 µM (active) |
| COC(=O)C1CCOC(C)N1C(=O)OC(C)(C)C (stereo not given) | > 100 µM (inactive) | > 100 µM (inactive) | > 100 µM (inactive) | > 100 µM (inactive) | > 100 µM (inactive) | > 100 µM (inactive) | > 100 µM (inactive) | > 100 µM (inactive) | > 100 µM (inactive) | > 100 µM (inactive) | > 100 µM (inactive) | > 100 µM (inactive) | > 100 µM (inactive) | > 100 µM (inactive) | > 100 µM (inactive) | > 100 µM (inactive) | > 100 µM (inactive) | > 100 µM (inactive) | > 100 µM (inactive) | > 100 µM (inactive) |
| [N-]=[N+]=C1C(=O)c2ccccc2-c2ccccc21 | 30.4 µM (inactive) | 38.6 µM (inactive) | 30.5 µM (inactive) | 28.1 µM (inactive) | 41.2 µM (inactive) | 33 µM (inactive) | 36.6 µM (inactive) | 36 µM (inactive) | 40.7 µM (inactive) | 43.7 µM (inactive) | 24.9 µM (inactive) | 25.6 µM (inactive) | 35.8 µM (inactive) | 30.6 µM (inactive) | 26.9 µM (inactive) | 45.8 µM (inactive) | 24.5 µM (inactive) | 54 µM (inactive) | 36.7 µM (inactive) | 22.3 µM (inactive) |
